Tests used:
[1] = target: T1, Corticotropin-releasing factor receptor 1 (Rattus norvegicus) (UniProt P35353); assay: Relative antagonistic potency in vitro measuring alteration of CRF-induced release of ACTH by rat anterior pituitary cells in culture; type: functional, cell-based; conditions: Pituitary gland cell
T1 sequence (whole entry): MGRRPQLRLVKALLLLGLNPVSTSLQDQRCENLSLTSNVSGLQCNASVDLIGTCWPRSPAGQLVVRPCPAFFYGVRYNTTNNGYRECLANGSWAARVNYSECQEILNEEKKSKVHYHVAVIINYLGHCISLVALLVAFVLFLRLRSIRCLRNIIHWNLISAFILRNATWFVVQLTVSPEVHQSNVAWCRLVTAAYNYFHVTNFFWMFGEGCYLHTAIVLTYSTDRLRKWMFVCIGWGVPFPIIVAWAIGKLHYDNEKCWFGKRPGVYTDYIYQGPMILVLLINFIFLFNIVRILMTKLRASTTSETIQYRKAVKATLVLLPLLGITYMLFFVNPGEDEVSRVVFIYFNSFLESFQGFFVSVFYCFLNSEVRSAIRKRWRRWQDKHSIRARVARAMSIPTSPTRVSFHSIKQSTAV

[2] = target: T1, Corticotropin-releasing factor receptor 1 (Rattus norvegicus); assay: Intrinsic activity in ACTH release assay as percent CRF response; type: functional

SMILES	Activity [1]	Intrinsic activity [2]
CCCC[C@H](NC(=O)[C@H](CC(C)C)NC(=O)[C@H](CCCCN)NC(=O)[C@H](CCCN=C(N)N)NC(=O)[C@H](CC(N)=O)NC(=O)[C@H](CO)NC(=O)[C@H](Cc1c[nH]cn1)NC(=O)[C@H](C)NC(=O)[C@H](CCC(N)=O)NC(=O)[C@H](CCC(N)=O)NC(=O)[C@H](C)NC(=O)[C@H](CC(C)C)NC(=O)[C@H](CCC(N)=O)NC(=O)[C@H](CCC(=O)O)NC(=O)[C@H](C)NC(=O)[C@H](CCCN=C(N)N)NC(=O)[C@H](C)NC(=O)[C@H](CCCC)NC(=O)[C@H]1CCC(=O)NCCCC[C@H](NC(=O)[C@H](CCCN=C(N)N)NC(=O)[C@H](CC(C)C)NC(=O)[C@H](CC(C)C)NC(=O)[C@H](Cc2c[nH]cn2)NC(=O)[C@H](N)Cc2ccccc2)C(=O)N[C@@H](C(C)C)C(=O)N[C@@H](CC(C)C)C(=O)N1)C(=O)N[C@@H](CCC(=O)O)C(=O)N[C@H](C(=O)N[C@H](C(=O)C(N)=O)[C@@H](C)CC)[C@@H](C)CC	< 0.001	23
CCCC[C@H](NC(=O)[C@@H]1CCC(=O)NCCCC[C@H](NC(=O)[C@H](CCCN=C(N)N)NC(=O)[C@H](CC(C)C)NC(=O)[C@H](CC(C)C)NC(=O)[C@H](Cc2c[nH]cn2)NC(=O)[C@H](N)Cc2ccccc2)C(=O)N[C@@H](C(C)C)C(=O)N[C@@H](CC(C)C)C(=O)N1)C(=O)N[C@@H](C)C(=O)N[C@@H](CCCN=C(N)N)C(=O)N[C@@H](C)C(=O)N[C@@H](CCC(=O)O)C(=O)N[C@@H](CCC(N)=O)C(=O)N[C@@H](CC(C)C)C(=O)N[C@@H](C)C(=O)N[C@@H](CCC(N)=O)C(=O)N[C@@H](CCC(N)=O)C(=O)N[C@@H](C)C(=O)N[C@@H](Cc1c[nH]cn1)C(=O)N[C@@H](CO)C(=O)N[C@@H](CC(N)=O)C(=O)N[C@@H](CCCN=C(N)N)C(=O)N[C@@H](CCCCN)C(=O)N[C@@H](CC(C)C)C(=O)N[C@@H](CCCC)C(=O)N[C@@H](CCC(=O)O)C(=O)N[C@H](C(=O)N[C@H](C(=O)C(N)=O)[C@@H](C)CC)[C@@H](C)CC	0.02	3
CCCC[C@H](NC(=O)[C@@H]1CC(=O)NCCC[C@H](NC(=O)[C@H](CC(C)C)NC(=O)[C@H](CC(C)C)NC(=O)[C@H](Cc2c[nH]cn2)NC(=O)[C@H](N)Cc2ccccc2)C(=O)N[C@@H](CCC(=O)O)C(=O)N[C@@H](C(C)C)C(=O)N[C@@H](CC(C)C)C(=O)N1)C(=O)N[C@@H](C)C(=O)N[C@@H](CCCN=C(N)N)C(=O)N[C@@H](C)C(=O)N[C@@H](CCC(=O)O)C(=O)N[C@@H](CCC(N)=O)C(=O)N[C@@H](CC(C)C)C(=O)N[C@@H](C)C(=O)N[C@@H](CCC(N)=O)C(=O)N[C@@H](CCC(N)=O)C(=O)N[C@@H](C)C(=O)N[C@@H](Cc1c[nH]cn1)C(=O)N[C@@H](CO)C(=O)N[C@@H](CC(N)=O)C(=O)N[C@@H](CCCN=C(N)N)C(=O)N[C@@H](CCCCN)C(=O)N[C@@H](CC(C)C)C(=O)N[C@@H](CCCC)C(=O)N[C@@H](CCC(=O)O)C(=O)N[C@H](C(=O)N[C@H](C(=O)C(N)=O)[C@@H](C)CC)[C@@H](C)CC	0.001	2
CCCC[C@H](NC(=O)[C@H](CC(C)C)NC(=O)[C@H](CCCCN)NC(=O)[C@H](CCCN=C(N)N)NC(=O)[C@H](CC(N)=O)NC(=O)[C@H](CO)NC(=O)[C@H](Cc1c[nH]cn1)NC(=O)[C@H](C)NC(=O)[C@H](CCC(N)=O)NC(=O)[C@H](CCC(N)=O)NC(=O)[C@H](C)NC(=O)[C@H](CC(C)C)NC(=O)[C@H](CCC(N)=O)NC(=O)[C@H](CCC(=O)O)NC(=O)[C@H](C)NC(=O)[C@H](CCCN=C(N)N)NC(=O)[C@H](C)NC(=O)[C@H](CCCC)NC(=O)[C@H]1CC(=O)NCCC[C@H](NC(=O)[C@H](CC(C)C)NC(=O)[C@H](CC(C)C)NC(=O)[C@H](Cc2c[nH]cn2)NC(=O)[C@H](N)Cc2ccccc2)C(=O)N[C@@H](CCC(=O)O)C(=O)N[C@@H](C(C)C)C(=O)N[C@@H](CC(C)C)C(=O)N1)C(=O)N[C@@H](CCC(=O)O)C(=O)N[C@H](C(=O)N[C@H](C(=O)C(N)=O)[C@@H](C)CC)[C@@H](C)CC	0.006	
